Experimental data reported in publication PMC5431807, “Structural Basis for Importin-α Binding of the Human Immunodeficiency Virus Tat” (Scientific Reports, 2017).
“Also recorded” adds a separate entry of the source.

What was measured:
importin-α [1] = target: T1, importin-α (Mus musculus, UniProt P52293); assay: Binding of importin-α to immobilised GST-Tat:NLS/CPP on glutathione column, SDS-PAGE; parameters: 6-His; made in house; The pET30 vector and Studier autoinduction imply E. coli (own inference); details: GST-Tat:NLS/CPP fusion immobilised on glutathione column, importin-α passed over
importin-α [2] = target: T1, importin-α; assay: X-ray crystal structure of Tat:NLS/CPP importin-α complex (PDB 5SVZ)
[3] = overall binding, 2.0 Å structure

## GRKKRRQRRRAPQN [Tat:NLS/CPP]
importin-α [1]
  binding to importin-α (column retention / complex formation): strong and direct interaction
importin-α [2]; 2.0 Å structure
  binding site on importin-α: binds to the major binding site of importin-α within ARM domains 2–4; also recorded: no NLS residues in the minor binding site
importin-α [2]; Tat Arg49 O – importin-α Asn235 ND2, PDBSum
  hydrogen bond distance: 2.77 Å
importin-α [2]; Tat Arg52 NH1 – importin-α Arg106 O, PDBSum
  hydrogen bond distance: 2.81 Å
importin-α [2]; Tat Arg52 NH1 – importin-α Leu104 O, PDBSum
  hydrogen bond distance: 2.84 Å
importin-α [2]; Tat Arg52 NH2 – importin-α Arg106 O, PDBSum
  hydrogen bond distance: 3.02 Å
importin-α [2]; Tat Arg52 NH2 – importin-α Glu107 O, PDBSum
  hydrogen bond distance: 3.20 Å
importin-α [2]; Tat Arg53 N – importin-α Asn146 OD1, PDBSum
  hydrogen bond distance: 2.89 Å
importin-α [2]; Tat Arg53 NH1 – importin-α Gln181 OE1, PDBSum
  hydrogen bond distance: 2.49 Å
importin-α [2]; Tat Arg53 O – importin-α Asn146 ND2, PDBSum
  hydrogen bond distance: 2.66 Å
importin-α [2]; Tat Arg53 O – importin-α Trp142 NE1, PDBSum
  hydrogen bond distance: 3.24 Å
importin-α [2]; Tat Lys50 NZ – importin-α Asp192 OD1, salt bridge interaction, PDBSum
  salt bridge distance: 2.89 Å
importin-α [2]; Tat Lys50 NZ – importin-α Gly150 O, PDBSum
  hydrogen bond distance: 2.91 Å
importin-α [2]; Tat Lys50 NZ – importin-α Thr155 OG1, PDBSum
  hydrogen bond distance: 2.80 Å
importin-α [2]; Tat Lys51 N – importin-α Asn188 OD1, PDBSum
  hydrogen bond distance: 2.81 Å
importin-α [2]; Tat Lys51 O – importin-α Asn188 ND2, PDBSum
  hydrogen bond distance: 2.79 Å
importin-α [2]; Tat Lys51 O – importin-α Trp184 NE1, PDBSum
  hydrogen bond distance: 3.02 Å
importin-α [2]; [3]
  buried surface area: 717 Å^2
  number of salt bridge interactions: 1 salt bridge
